Results from patent US20150238401A1, “PROPYL-PHENYL-ETHER DERIVATIVE, AND MELANOGENESIS INHIBITOR, SKIN-LIGHTENING AGENT, ANTIMICROBIAL AGENT AND COSMETIC CONTAINING SAID PROPYL-PHENYL-ETHER DERIVATIVE” (SEIWA KASEI COMPANY, LIMITED, priority 2012, published 2015).

Experiments:
[1] = test system: B16 melanoma 4A5 cell; assay: Melanogenesis inhibiting test (theophylline-induced melanine production); type: cell-based; details: B16 mouse melanoma 4A5, theophylline 1.0 mmol/L, 3 days culture, N=4; for IC40: B16 melanoma 4A5, 72 h, read-out: Judgment: sample concentration showing the melanogenesis inhibiting ratio of 40% or more
Description: As a test for a skin-lightening effect, evaluation of the action of B16 melanoma 4A5 cell on theophylline-induced melanine production was carried out on propyl-phenyl-ether derivatives of the present invention, according to the following procedure. (1) B16 mouse melanoma 4A5 strain was sowed onto a 48-well plate at a cell density of 8.0×10^3 cells/well. (2) Culturing was performed for 24 hours with Dulbecco's Modified Eagle's medium (manufactured by SIGMA. Hereinafter, abbreviated as D-MEM) containing 10% fetal bovine serum (manufactured by Nichirei Biosciences Inc.). […] (3) After culturing for 3 days in the co-existence of a sample, the medium was removed using an aspirator. Then, after distilled water was added, cells were broken by an ultrasonic wave. (4) Thereafter, the amount of protein was determined using BCA protein assay kit (manufactured by Thermo Fisher Scientific Inc.), and the produced amount of melanine was measured by an alkali solubilizing method described below. [Alkali Solubilizing Method] To the cell-destructed solution was added sodium hydroxide so as to give a final concentration of 1 mol/L and the mixture was dissolved by heating (60° C., 30 minutes), then, the absorbance at 450 nm was measured using a micro plate reader. The melanine amount was calculated from a calibration curve made using synthetic melanine (SIGMA) as a standard. The melanine amount per unit protein was calculated by dividing the melanine amount by the protein amount. (5) The melanine production suppressing rate was calculated according to the following formula. Melanine production suppressing rate (%)=[1−(A−B)/(C−B)]×100 [wherein, A represents the melanine amount per unit protein (g/g) in adding a sample, B represents the melanine amount per unit protein (g/g) in the normal group, and C represents the melanine amount per unit protein (g/g) in the control group.] In the above, Normal group is a case of theophylline (−; no addition) and sample (−; no addition), and Control group is a case of theophylline (+; addition) and sample (−; no addition). (6) Determination of Skin-Lightening Effect The amount of a sample required for adjusting the melanogenesis inhibiting ratio to 40% or more was measured, and the effect was evaluated by the following criteria based on the measured amount. The measurement was conducted at N=4 (4 wells per sample). The skin-lightening effect is expressed as described below based on the sample concentration showing the melanogenesis inhibiting ratio of 40% or more. The measurement was conducted at N=4.

[2] = test system: Propionibacterium acnes (JCM6415); assay: Anti-acne test (growth in GAM bouillon medium, OD620); type: cell-based; details: sample final concentration 0.1%, 37° C., anaerobic, 48 hours
Description: Propionibacterium acnes (JCM6415: ATCC strain) was transplanted to GAM bouillon medium (manufactured by Nissui Pharmaceutical Co., Ltd.), and cultured at 37° C. under anaerobic condition for 24 hours. Thereafter, it was diluted with GAM bouillon medium so that the final bacterium concentration was OD620=0.1, and this was used as a test bacterium solution. In examples, the propyl-phenyl-ether derivative was weighed so that the final concentration was 0.1%, dissolved in GAM bouillon medium, then, filter-sterilization was performed. The resultant solution was used as a sample solution. The test bacterium solution was added in an amount of 30 μL and the sample solution was added in an amount of 120 μL to a 96-well microplate (manufactured by Sumitomo Bakelite Co., Ltd.), then, immediately, the micro plate and AnaeroPack-KENKI (manufactured by Mitsubishi Gas Chemical Co., Inc.) were placed into an anaerobic jar (manufactured by Mitsubishi Gas Chemical Co., Inc.), and culture was carried out at 37° C. under anaerobic condition for 48 hours. Thereafter, OD620 was measured by a microplate reader. The same test was conducted using methylparaben, phenoxyethanol and sodium ascorbate as comparative compounds.
The results are classified by the following criteria and shown in Table 5-Table 7. • Δ: OD620 is 0.6 or more • ◯: OD620 is 0.3-0.6 • ⊚: OD620 is 0.3 or less

SMILES: CCOCC(O)COc1ccc(C(C)(C)c2ccc(OCC(O)COCC)cc2)cc1 (stereo not drawn) [Example 32, 2,2-bis[4′-(1″-O-ethyl-2″-hydroxypropoxy)phenyl]propane]
- IC40 [1]: ≤ 30 µM
- Judgment: OD620 after culture [2]: ⊚⊚

SMILES: CCOCC(O)COc1ccc(C(C)C)c(C)c1 (stereo not drawn) [Example 29, 1-O-ethyl-2-hydroxy-3-(3′-methyl-4′-isoproylphenoxy)propyl]
- IC40 [1]: ≤ 30 µM
- Judgment: OD620 after culture [2]: ⊚⊚

SMILES: CC(C)(c1ccc(OCC(O)CO)cc1)c1ccc(OCC(O)CO)cc1 (stereo not drawn) [Example 25]
- IC40 [1]: ≤ 30 µM
- Judgment: OD620 after culture [2]: ⊚⊚

SMILES: Cc1cc(OCC(O)CO)ccc1C(C)C (stereo not drawn) [Example 31, 1,2-di-hydroxy-3-(3′-methyl-4′-isoproylphenoxy)propyl]
- IC40 [1]: ≤ 30 µM
- Judgment: OD620 after culture [2]: ⊚⊚

SMILES: CCOCC(O)COc1ccc(C(C)(C)c2ccccc2)cc1 (stereo not drawn) [Example 28, 1-O-ethyl-2-hydroxy-3-(4′-α-cumylphenoxy)propyl]
- IC40 [1]: ≤ 30 µM
- Judgment: OD620 after culture [2]: ⊚⊚

SMILES: Cc1ccccc1OCC(O)CO (stereo not drawn) [Synthesis Example 4, 1,2-di-hydroxy-3-(2′-methylphenoxy)propyl, reference compound]
- IC40 [1]: ≥ 300 µM
- Judgment: OD620 after culture [2]: Δ (Δ: OD620 is 0.6 or more)

SMILES: CCOCC(O)COc1ccc(C(C)CC)cc1 (stereo not drawn) [Example 4, 1-O-ethyl-2-hydroxy-3-(4′-sec-butylphenoxy)propyl]
- Judgment: sample concentration showing the melanogenesis inhibiting ratio of 40% or more [1]: ⊚ (30 to 100 μmol/L: ⊚)
- Judgment: OD620 after culture [2]: ⊚ (⊚: OD620 is 0.3 or less)

SMILES: CC(C)(c1ccccc1)c1ccc(OCC(O)CO)cc1 (stereo not drawn) [Example 16, 1,2-di-hydroxy-3-(4′-α-cumylphenoxy)propyl]
- IC40 [1]: 30 to 100 µM
- Judgment: OD620 after culture [2]: ⊚ (⊚: OD620 is 0.3 or less)

SMILES: CC(C)c1ccc(OCC(O)CO)cc1 (stereo not drawn) [Example 13, 1,2-di-hydroxy-3-(4′-isopropylphenoxy)propyl]
- IC40 [1]: 30 to 100 µM
- Judgment: OD620 after culture [2]: ⊚ (⊚: OD620 is 0.3 or less)

SMILES: CCc1ccc(OCC(O)CO)cc1 (stereo not drawn) [Example 14, 1,2-di-hydroxy-3-(4′-ethylphenoxy)propyl]
- IC40 [1]: 100 to 300 µM
- Judgment: OD620 after culture [2]: ⊚ (⊚: OD620 is 0.3 or less)

SMILES: CC(C)(C)c1ccc(OCC(O)COCC(O)COc2ccc(C(C)(C)C)cc2)cc1 (stereo not drawn) [Example 10, di[2-hydroxy-3-(4′-tert-butylphenoxy)propyl]ether]
- IC40 [1]: 100 to 300 µM
- Judgment: OD620 after culture [2]: ⊚ (⊚: OD620 is 0.3 or less)

SMILES: CCOc1ccc(C(C)(C)C)cc1 [Synthesis Example 2, 1-(4′-tert-butylphenoxy)ethyl, reference compound]
- IC40 [1]: ≥ 300 µM
- Judgment: OD620 after culture [2]: Δ (Δ: OD620 is 0.6 or more)

SMILES: Cc1cc(OCC(O)CO)c(C(C)(C)C)cc1C(C)(C)C (stereo not drawn) [Example 21, 1,2-di-hydroxy-3-(2′,4′-di-tert-butyl-5′-methylphenoxy)propyl]
- IC40 [1]: ≤ 30 µM
- Judgment: OD620 after culture [2]: ⊚⊚

SMILES: COC(=O)c1ccc(O)cc1 [Methylparaben, reference compound]
- Judgment: OD620 after culture [2]: Δ (Δ: OD620 is 0.6 or more)

SMILES: CCOCC(O)COc1ccccc1C(C)CC (stereo not drawn) [Example 27, 1-O-ethyl-2-hydroxy-3-(2′-sec-butylphenoxy)propyl]
- IC40 [1]: 30 to 100 µM
- Judgment: OD620 after culture [2]: ⊚ (⊚: OD620 is 0.3 or less)

SMILES: CC(C)(C)c1ccc(OCC(O)COc2ccc(O)cc2)cc1 (stereo not drawn) [Example 9, 1-(4″-hydroxyphenoxy)-2-hydroxy-3-(4′-tert-butylphenoxy)propyl]
- IC40 [1]: 30 to 100 µM
- Judgment: OD620 after culture [2]: ⊚ (⊚: OD620 is 0.3 or less)

SMILES: CCOCC(O)COc1c(C(C)CC)cccc1C(C)CC (stereo not drawn) [Example 30, 1-O-ethyl-2-hydroxy-3-(2′,6′-di-sec-butylphenoxy)propyl]
- IC40 [1]: ≤ 30 µM
- Judgment: OD620 after culture [2]: ⊚⊚

SMILES: CCOCC(O)COc1ccc(C(C)(C)CC(C)(C)C)cc1 (stereo not drawn) [Example 33, 1-O-ethyl-2-hydroxy-3-[4′-(1″,1″,3″,3″-tetramethylbutyl)phenoxy]propyl]
- IC40 [1]: 30 to 100 µM
- Judgment: OD620 after culture [2]: ⊚ (⊚: OD620 is 0.3 or less)

SMILES: COc1ccc(OCC(O)CO)c(C(C)(C)C)c1 (stereo not drawn) [Example 23, 1,2-di-hydroxy-3-(2′-tert-butyl-4′-methoxylphenoxy)propyl]
- IC40 [1]: 30 to 100 µM
- Judgment: OD620 after culture [2]: ⊚ (⊚: OD620 is 0.3 or less)

SMILES: CCC(C)(C)c1ccc(OCC(O)CO)cc1 (stereo not drawn) [Example 15, 1,2-di-hydroxy-3-(4′-tert-amylphenoxy)propyl]
- IC40 [1]: ≤ 30 µM
- Judgment: OD620 after culture [2]: ⊚⊚

SMILES: CC(C)(C)c1ccc(OCCCO)cc1 [Example 18, 1-hydroxy-3-(4′-tert-butylphenoxy)propyl]
- IC40 [1]: 30 to 100 µM
- Judgment: OD620 after culture [2]: ⊚ (⊚: OD620 is 0.3 or less)

SMILES: CCCCc1ccc(OCC(O)CO)cc1 (stereo not drawn) [Example 12, 1,2-di-hydroxy-3-(4′-n-butylphenoxy)propyl]
- IC40 [1]: 30 to 100 µM
- Judgment: OD620 after culture [2]: ◯ (◯: OD620 is 0.3-0.6)

SMILES: COc1ccc(OCC(O)CO)cc1C(C)(C)C (stereo not drawn) [Example 24, 1,2-di-hydroxy-3-(3′-tert-butyl-4′-methoxylphenoxy)propyl]
- IC40 [1]: 30 to 100 µM
- Judgment: OD620 after culture [2]: ⊚ (⊚: OD620 is 0.3 or less)

SMILES: CC(C)(C)c1ccc(OCC(O)CO)c(C(C)(C)C)c1 (stereo not drawn) [Example 20, 1,2-di-hydroxy-3-(2′,4′-di-tert-butylphenoxy)propyl]
- IC40 [1]: ≤ 30 µM
- Judgment: OD620 after culture [2]: ⊚⊚

SMILES: CCCOc1ccc(C(C)(C)C)cc1 [Synthesis Example 1, 1-(4′-tert-butylphenoxy)propyl, reference compound]
- IC40 [1]: ≥ 300 µM
- Judgment: OD620 after culture [2]: Δ (Δ: OD620 is 0.6 or more)

SMILES: OCC(O)COc1ccccc1 (stereo not drawn) [Synthesis Example 3, 1,2-di-hydroxy-3-phenoxypropyl, reference compound]
- IC40 [1]: ≥ 300 µM
- Judgment: OD620 after culture [2]: Δ (Δ: OD620 is 0.6 or more)

SMILES: CC(C)(C)CC(C)(C)c1ccc(OCC(O)CO)cc1 (stereo not drawn) [Example 17, 1,2-di-hydroxy-3-[4′-(1″,1″,3″,3″-tetramethylbutyl)phenoxy]propyl]
- IC40 [1]: ≤ 30 µM
- Judgment: OD620 after culture [2]: ⊚⊚

SMILES: CCC(C)c1cccc(C(C)CC)c1OCC(O)CO (stereo not drawn) [Example 19, 1,2-di-hydroxy-3-(2′,6′-di-sec-butylphenoxy)propyl]
- IC40 [1]: ≤ 30 µM
- Judgment: OD620 after culture [2]: ⊚⊚

SMILES: CC(C)(C)c1ccc(OCC(O)COc2ccc(C(C)(C)C)cc2)cc1 [Example 8, 2-hydroxy-1,3-di-(4′-tert-butylphenoxy)propyl]
- IC40 [1]: ≤ 30 µM
- Judgment: OD620 after culture [2]: ⊚⊚

SMILES: CC(O)COc1ccc(C(C)(C)C)cc1 (stereo not drawn) [Example 2, 2-hydroxy-3-(4′-tert-butylphenoxy)propyl]
- IC40 [1]: 30 to 100 µM
- Judgment: OD620 after culture [2]: ⊚ (⊚: OD620 is 0.3 or less)

SMILES: CCCCC(CC)COCC(O)COc1ccccc1C(C)CC (stereo not drawn) [Example 26, 1-O-(2″-ethylhexyl)-2-hydroxy-3-(2′-sec-butylphenoxy) propyl]
- IC40 [1]: 30 to 100 µM
- Judgment: OD620 after culture [2]: ⊚ (⊚: OD620 is 0.3 or less)

SMILES: Cc1cc(C(C)(C)C)c(OCC(O)CO)c(C(C)(C)C)c1 (stereo not drawn) [Example 22, 1,2-di-hydroxy-3-(2′,6′-di-tert-butyl-4′-methylphenoxy) propyl]
- IC40 [1]: ≤ 30 µM
- Judgment: OD620 after culture [2]: ⊚⊚

SMILES: O=C1O[C@H]([C@@H](O)CO)C([O-])=C1O.[Na+] [Sodium Ascorbate, reference compound]
- Judgment: OD620 after culture [2]: Δ (Δ: OD620 is 0.6 or more)

SMILES: CCOC(CO)COc1ccc(C(C)(C)C)cc1 (stereo not drawn) [2-O-ethyl-1-hydroxy-3-(4′-tert-butylphenoxy)propyl]
- IC40 [1]: ≤ 30 µM
- Judgment: OD620 after culture [2]: ⊚⊚
